Source: paper PMC8297771 (PLoS Pathogens, 2021)

How the values were obtained:
[1] = Safety pharmacology: effects on the cardiovascular system in dogs; type: in vivo; conditions: oral 30, 60 and 90 mg/kg
Method: Effects on the Respiratory System in Rats (Study no. YL18404). Four groups of eight male rats were given a single oral administration of STP0404 at doses of 100, 300 and 600 mg/kg. STP0404 was administered as a suspension in 0.5% MC in a volume of 10 mL/kg. […] Measurements were conducted at pre-dosing and 0.5, 1, 3, 6 12 and 24 hrs post-dosing, and respiratory rate, tidal volume and minute volume were investigated (INA Research, Japan). Effects on the Central Nervous System in Rats (Study no. YL18405). Four groups of six male rats were given a single oral administration of STP0404 at doses of 0 (vehicle), 100, 300 and 600 mg/kg. The test article was administered as a suspension in 0.5% MC in a volume of 10 mL/kg. […] Blinded observations were conducted pre-dosing and 0.5, 1, 3, 6, 12 and 24 hrs post-dosing on rats body temperature, pupil size, landing foot-splay and grip strength in functional observational battery. Effects on the Cardiovascular System in Dogs (Study no. YL18406). STP0404 at dose levels of 30, 60 and 90 mg/kg were administered orally (by capsules) to four male Beagle dogs in a design with 7-day intervals between doses. Heart rate, blood pressure (systolic, diastolic and mean) and electrocardiographic (ECG) parameters (PR, QT and QTc intervals and QRS duration) were evaluated at pre-dosing and 0.5, 1, 2, 4, 8 and 24 hrs post-dosing. […]

HIV-1NL4-3 = assay: In vitro anti-viral assay in human PBMCs (RT activity readout); type: cell-based
Method: For the assay with human PBMCs, PHA stimulated cells from at least two pooled healthy were infected with HIV-1 strains in 96-well plates. Test drug dilutions, which were prepared at a 2X concentration in microtiter tubes and 100 μL of each concentration (nine total concentrations), were placed in appropriate wells using the standard format. 50 μL of a predetermined dilution of virus stock was placed in each test well (final MOI ≅ 0.1). The PBMC cultures were maintained for 7 days following infection at 37 °C, 5% CO2. After this period, cell-free supernatant samples were collected for analysis of reverse transcriptase (RT) activity. All assays were conducted in triplicates. For RT assay, a microtiter plate-based reverse transcriptase (RT) reaction was utilized (Buckheit et al., AIDS Research and Human Retroviruses 7:295–302, 1991). Tritiated thymidine triphosphate (^3H-TTP, 80 Ci/mmol, NEN) is received in 1:1 dH2O: Ethanol at 1 mCi/mL. Poly rA:oligo dT template:primer (GE Healthcare) was prepared as a stock solution by combining 150 μL poly rA (20 mg/mL) with 0.5 mL oligo dT (20 units/mL) and 5.35 mL sterile dH2O followed by aliquoting (1.0 mL) and storage at—20°C. The RT reaction buffer was prepared fresh on a daily basis and consisted of 125 μL 1.0 M EGTA, 125 μL dH2O, 125 μL 20% Triton X100, 50 μL 1.0 M Tris (pH 7.4), 50 μL 1.0 M DTT, and 40 μL 1.0 M MgCl2. The final reaction mixture was prepared by combining 1 part ^3H-TTP, 4 parts dH2O, 2.5 parts poly rA:oligo dT stock and 2.5 parts reaction buffer. Ten microliters of this reaction mixture were placed in a round bottom microtiter plate and 15 μL of virus containing supernatant is added and mixed. The plate was incubated at 37°C for 60 mins. Following incubation, the reaction volume was spotted onto DE81 filter-mats (Wallac), washed 5 times for 5 mins each in a 5% sodium phosphate buffer or 2X SSC (Life Technologies). Next they were washed 2 times for 1 min each in distilled water, 2 times for 1 min each in 70% ethanol, and then dried. Incorporated radioactivity (counts per min, CPM) was quantified using standard liquid scintillation techniques. These PBMC analysis was conducted by fee to service through Southern Research Institute (Frederick, MD, USA). The IC50 were analyzed using GraphPad Prism (Version 9) and presented as means ± S.D. of the triplicates.

[2] = Hepatocyte stability determination; type: in vitro ADME; conditions: monkey and human hepatocytes
Method: Incubation was conducted in 96-well cell culture plate format. The plates were labeled as T0, T15, T30, T60, T90, T0-MC, T90-MC and Blank, respectively. All plates were pre-warmed for 10 to 20 mins at 37±1°C in an incubator of 5% CO2 and saturated humidity. The vials of cryopreserved SD rat, beagle dog, cynomolgus monkey and human hepatocyte were removed from the liquid nitrogen container and immediately immersed in a water bath (the setting temperature was 37°C) for approximately 90 secs to allow the ice pellets melted. The melted ice pellets were transferred into pre-warmed 40 mL of Thawing Medium tubes mixed well by gently inverting the tubes then centrifuged at 100 ×g for 5 mins at room temperature. The supernatants were discarded and cell pellets were re-suspended by adding appropriate volumes of pre-warmed WEM. The cells viability of each species was determined using Trypan Blue exclusion. The viabilities of rat, dog, cynomolgus and human hepatocytes were 89.0%, 94.3%, 88.0% and 91.8%, respectively. Cells were finally diluted to 0.625×10^6 cells/mL with pre-warmed WEM. At each corresponding time point, the sample reactions were stopped by adding 150 μL of acetonitrile containing 200 ng/mL tolbutamide and 200 ng/mL labetalol as internal standards. All sample plates were thoroughly mixed and centrifuged at 3220 ×g for 20 mins. […]

In the case of `Cc1nc2c(c(C)c(C)n2Cc2cnn(C)c2)c(-c2ccc(Cl)cc2)c1[C@H](OC(C)(C)C)C(=O)O` [STP0404], the “safety pharmacology concerns, cardiovascular system” value [1] is reported as “did not induce any safety pharmacology concerns”, the IC50 (HIV-1NL4-3; Human immunodeficiency virus 1, NL43, PBMC) is reported as 0.41 ± 0.43 nM and the “TI (TC50 / IC50)” value (HIV-1NL4-3; human PBMCs, NL4-3, minimal TI from IC50 and 10 μM) is reported as >24,000. The “metabolic stability in hepatocytes (in words)” value [2] was “much longer metabolic stability”.
